From patent publication US8487121B2, “Chromane derivatives as TRPV3 modulators” (Glenmark Pharmaceuticals S.A., priority 2007, dated 2013)

Target: T1, Human TRPV3 (Homo sapiens, UniProt Q8NET8)
T1 construct: expressed in transfected cells; host or cells: CHO cells (G-418 selected)
T1 sequence (Q8NET8 1-790): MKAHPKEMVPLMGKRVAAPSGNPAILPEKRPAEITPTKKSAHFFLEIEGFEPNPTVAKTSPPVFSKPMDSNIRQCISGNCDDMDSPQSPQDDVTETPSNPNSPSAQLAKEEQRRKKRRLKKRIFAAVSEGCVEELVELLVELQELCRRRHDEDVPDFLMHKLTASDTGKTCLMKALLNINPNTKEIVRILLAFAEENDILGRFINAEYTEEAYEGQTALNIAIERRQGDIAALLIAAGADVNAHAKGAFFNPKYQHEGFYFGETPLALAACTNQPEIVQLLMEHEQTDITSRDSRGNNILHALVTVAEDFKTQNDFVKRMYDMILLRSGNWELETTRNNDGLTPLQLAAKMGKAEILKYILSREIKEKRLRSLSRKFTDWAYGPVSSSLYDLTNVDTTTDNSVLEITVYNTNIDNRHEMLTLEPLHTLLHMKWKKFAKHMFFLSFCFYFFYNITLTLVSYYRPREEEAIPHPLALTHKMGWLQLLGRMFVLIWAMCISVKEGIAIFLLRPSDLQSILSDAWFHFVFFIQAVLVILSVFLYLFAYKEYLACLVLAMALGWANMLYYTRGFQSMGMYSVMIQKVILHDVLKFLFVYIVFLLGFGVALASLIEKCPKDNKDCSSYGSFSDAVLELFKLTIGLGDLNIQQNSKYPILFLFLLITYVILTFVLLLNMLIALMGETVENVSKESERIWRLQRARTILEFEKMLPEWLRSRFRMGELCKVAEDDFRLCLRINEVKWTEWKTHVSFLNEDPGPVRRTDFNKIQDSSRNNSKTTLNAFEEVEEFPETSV
Experiment: 45Calcium uptake assay: inhibition of 2-APB induced cellular uptake of radioactive calcium
Format: cell-based
Conditions: human TRPV3 expressing CHO cells, 2-APB 500 μM; for inhibition at 1 µM: 1.0 μM compound, read-out: Percentage inhibition at 1.0 μM; for inhibition at 10 µM: 10.0 μM compound, read-out: Percentage inhibition at 10.0 μM
Source text: The illustrative examples of the present invention are screened for TRPV3 activity according to a modified procedure described in Toth, A. et al. Life Sciences (2003), 73, 487-498. The screening of the compounds can be carried out by other methods and procedures known to a person skilled in the art. Such screening methods may be found in Hu, H-Z., et al. J. Biol. Chem. (2004), 279, 35741-35748; Smith, G. D et al. Nature (2002), 418, 186-190 and Peier, A. M., et al. Science (2002), 296, 2046-2049.
Screening for TRPV3 Antagonist Using the ^45Calcium Uptake Assay:
The inhibition of TRPV3 receptor activation was followed as inhibition of 2-APB induced cellular uptake of radioactive calcium. Test compounds were dissolved in DMSO to prepare 20 mM stock and then diluted using plain medium with 0.1% BSA and 1.8 mM CaCl2 to get desired concentration. Final concentration of DMSO in the reaction was 0.5% (v/v). Human TRPV3 expressing CHO cells were grown in F-12 DMEM medium with 10% FBS, 1% penicillin-streptomycin solution, 400 μg/ml of G-418. Cells were seeded 24 h prior to the assay in 96 well plates so as to get ˜50,000 cells per well on the day of experiment. Cells were treated with test compounds for 10 minutes followed by addition of 2-APB at a final concentration of 500 μM and 5 μCi/ml ^45Ca^+2 for 4 minutes. Cells were washed and lysed using buffer containing 1% Triton X-100, 0.1% deoxycholate and 0.1% SDS. Radioactivity in the lysate was measured in Packardt Top count after addition of liquid scintillant.
Concentration response curves were plotted as a % of maximal response obtained in the absence of test antagonist. IC50 value was calculated from concentration response curve by nonlinear regression analysis using GraphPad PRISM software.
Percentage inhibition at concentrations of 1.0 μM and 10.0 μM are given in the table along with IC50 (nM) values for selected examples.

`CC(C)Oc1ccc(NS(C)(=O)=O)cc1CCC(=O)NC1CC2(CCC2)Oc2c(Cl)cc(Cl)cc21` (stereo not drawn) [Example 62, N-(6,8-Dichloro-3,4-dihydrospiro[chromene-2,1′-cyclobutan]-4-yl)-3-{2-isopropoxy-5-[(methylsulfonyl)amino]phenyl}propanamide] showed an inhibition at 1 µM of 13.5% and an inhibition at 10 µM of 82.2%.
Compound `O=C(CCc1cccc2c1OCCO2)NC1CC2(CCC2)Oc2ccc(Cl)cc21` (stereo not drawn) [Example 84] has an inhibition at 1 µM of 11% and an inhibition at 10 µM of 83.2%.
For `O=C(CCc1ccccc1OC1CCCC1)N[C@H]1CC2(CCC2)Oc2c(Cl)cccc21` [Example 32], the inhibition at 1 µM was 24.8% and the inhibition at 10 µM was 43.9%.
`CC(C)Oc1c(CCC(=O)NC2CC3(CCC3)Oc3c(Cl)cccc32)cccc1NS(C)(=O)=O` (stereo not drawn) [Example 58, N-(8-Chloro-3,4-dihydrospiro[chromene-2,1′-cyclobutan]-4-yl)-3-{2-isopropoxy-3-[(methylsulfonyl)amino]phenyl}propanamide] gave an inhibition at 1 µM of 61.7% and an inhibition at 10 µM of 98.7%.
With `COc1ccc2cc(CCC(=O)N[C@H]3CC4(CCC4)Oc4ccc(Cl)cc43)ccc2c1` [Example 75] the inhibition at 1 µM was 46.6% and the inhibition at 10 µM was 90.4%.
`O=C(Cc1noc2ccccc12)N[C@H]1CC2(CCC2)Oc2ccc(Cl)cc21` [Example 27] was tested, and the inhibition at 1 µM was 5.3% and the inhibition at 10 µM was 75.9%.
`O=C(Cc1ccc2c(c1)OCO2)NC1CC2(CCC2)Oc2ccc(Cl)cc21` (stereo not drawn) [Example 23, 2-(1,3-Benzodioxol-5-yl)-N-(6-chloro-3,4-dihydrospiro[chromene-2,1′-cyclobutan]-4-yl)acetamide] was tested, and the inhibition at 1 µM was 6.2% and the inhibition at 10 µM was 65.3%.
`CC(C)Oc1c(CCC(=O)NC2CC3(CCC3)Oc3ccc(Cl)cc32)cccc1NS(C)(=O)=O` (stereo not drawn) [Example 57, N-(6-Chloro-3,4-dihydrospiro[chromene-2,1′-cyclobutan]-4-yl)-3-{2-isopropoxy-3-[(methylsulfonyl)amino]phenyl}propanamide] was tested, and the inhibition at 1 µM was 30.3% and the inhibition at 10 µM was 84.3%.
Compound `O=C(Cc1cccc2ccccc12)N[C@@H]1CC2(CCC2)Oc2ccc(Cl)cc21` [Example 12, N-[(4R)-6-Chloro-3,4-dihydrospiro[chromene-2,1′-cyclobutan]-4-yl]-2-(1-naphthyl)acetamide] has an IC50 of 500 to 1000 nM.
In the case of `O=C(Cc1cccc2ccccc12)N[C@@H]1CC2(CCC2)Oc2c(F)cc(F)cc21` [Example 11, N-[(4R)-6,8-difluoro-3,4-dihydrospiro[chromene-2,1′-cyclobutan]-4-yl]-2-(1-naphthyl)acetamide], the inhibition at 1 µM is reported as 23.6% and the inhibition at 10 µM is reported as 76%.
`CC(C)Oc1c(CCC(=O)NC2CC3(CCC3)Oc3c(Cl)cc(Cl)cc32)cccc1NS(C)(=O)=O` (stereo not drawn) [Example 65, N-(6,8-Dichloro-3,4-dihydrospiro[chromene-2,1′-cyclobutan]-4-yl)-3-{2-isopropoxy-3-[(methylsulfonyl)amino]phenyl}propanamide] was tested, and the inhibition at 1 µM was 74.1%, the inhibition at 10 µM was 99.5% and the IC50 was 500 to 1000 nM.
Work on `O=C(CCc1cccc2c1oc1ccccc12)NC1CC2(CCC2)Oc2ccc(Cl)cc21` (stereo not drawn) [Example 85, N-(6-Chloro-3,4-dihydrospiro[chromene-2,1′-cyclobutan]-4-yl)-3-(dibenzo[b,d]furan-4-yl)propanamide] yielded an inhibition at 1 µM of 76.9%, an inhibition at 10 µM of 90.4% and an IC50 of less than 500 nM.
`CS(=O)(=O)Nc1ccccc1CC(=O)NC1CC2(CCC2)Oc2ccc(Cl)cc21` (stereo not drawn) [Example 3, N-(6-chloro-3,4-dihydrospiro[chromene-2,1′cyclobutan]-4-yl)-2-{2-[(methylsulfonyl)-amino]phenyl}acetamide] was tested, and the inhibition at 1 µM was 0% and the inhibition at 10 µM was 33.1%.
`COc1cccc(CCC(=O)NC2CC3(CCC3)Oc3cc(Cl)ccc32)c1OC1CCCC1` (stereo not drawn) [Example 45, N-(7-Chloro-3,4-dihydrospiro[chromene-2,1′-cyclobutan]-4-yl)-3-(2-cyclopentyloxy-3-methoxy)phenylpropanamide] showed an inhibition at 1 µM of 59.2%, an inhibition at 10 µM of 94.8% and an IC50 of 500 to 1000 nM.
In the case of `O=C(CCc1ccccc1-c1ccccn1)NC1CC2(CCC2)Oc2ccc(Cl)cc21` (stereo not drawn) [Example 35, N-(6-Chloro-3,4-dihydrospiro[chromene-2,1′-cyclobutan]-4-yl)-3-(2-pyridin-2-ylphenyl) propanamide], the inhibition at 1 µM is reported as 44.8% and the inhibition at 10 µM is reported as 97.6%.
`COc1cccc(CCCC(=O)NC2CCSc3ccc(Cl)cc32)c1OC1CCCC1` (stereo not drawn) [Example 104, N-(6-chloro-3,4-dihydro-2H-thiochromen-4-yl)-4-(2-cyclopentyloxy-3-methoxyphenyl)-butanamide] showed an inhibition at 1 µM of 51.3% and an inhibition at 10 µM of 92.5%.
`COc1cccc(CCC(=O)NC2CC3(CCC3)Oc3ccc(Cl)cc32)c1OCc1ccccc1` (stereo not drawn) [Example 56, N-(6-Chloro-3,4-dihydrospiro[chromene-2,1′-cyclobutan]-4-yl)-3-(2-benzyloxy-3-methoxy)phenylpropanamide] gave an inhibition at 1 µM of 57.5% and an inhibition at 10 µM of 87.5%.
`O=C(CCc1ccc(OC(F)F)c2ccccc12)N[C@H]1CC2(CCC2)Oc2ccc(Cl)cc21` [Example 72, (4S)-6-Chloro-N-(3,4-dihydrospiro[chromene-2,1′-cyclobutan]-4-yl)-3-(4-difluoromethoxy-1-naphthyl)propanamide] was tested, and the inhibition at 1 µM was 60.3%, the inhibition at 10 µM was 93.3% and the IC50 was 500 to 1000 nM.
`COc1cccc(CC(=O)N[C@@H]2CC3(CCC3)Oc3c(Cl)cccc32)c1OC1CCCC1` [Example 5, N-[(4R)-8-Chloro-3,4-dihydrospiro[chromene-2,1′-cyclobutan]-4-yl]-2-(2-cyclopentyloxy-3-methoxy)phenylacetamide] was tested, and the inhibition at 1 µM was 11.7% and the inhibition at 10 µM was 86.8%.
`O=C(Cc1cccc2ccccc12)N[C@H]1CC2(CCC2)Oc2ccc(Cl)cc21` [Example 13, N-[(4S)-6-Chloro-3,4-dihydrospiro[chromene-2,1′-cyclobutan]-4-yl]-2-(1-naphthyl)-acetamide] gave an inhibition at 1 µM of 5.9%, an inhibition at 10 µM of 87.6% and an IC50 of 1000 to 2000 nM.
Compound `O=C(Cc1cccc2ccccc12)N[C@H]1CC2(CCC2)Oc2c(Cl)cccc21` [Example 16, N-[(4S)-8-Chloro-3,4-dihydrospiro[chromene-2,1′-cyclobutan]-4-yl]-2-(1-naphthyl)-acetamide] has an inhibition at 1 µM of 0% and an inhibition at 10 µM of 35.2%.
With `COc1cccc(CCCC(=O)NC2CC3(CCC3)Oc3ccc(Cl)cc32)c1OC1CCCC1` (stereo not drawn) [Example 92, N-(6-Chloro-3,4-dihydrospiro[chromene-2,1′-cyclobutan]-4-yl)-4-[2-(cyclopentyloxy)-3-methoxyphenyl]butanamide] the inhibition at 1 µM was 86.1%, the inhibition at 10 µM was 95.8% and the IC50 was less than 500 nM.
For `O=C(CCc1cccc2c1OCO2)NC1CC2(CCC2)Oc2ccc(Cl)cc21` (stereo not drawn) [Example 82, 3-(1,3-Benzodioxol-4-yl)-N-[6-chloro-3,4-dihydrospiro[chromene-2,1′-cyclobutan]-4-yl]propanamide], the inhibition at 1 µM was 24.3% and the inhibition at 10 µM was 90.9%.
Work on `O=C(Cc1cccc2ccccc12)N[C@@H]1CC2(CCC2)Oc2c(Cl)cccc21` [Example 15, N-[(4R)-8-Chloro-3,4-dihydrospiro[chromene-2,1′-cyclobutan]-4-yl]-2-(1-naphthyl)-acetamide] yielded an inhibition at 10 µM of 27.3%.
In the case of `COc1ccc2[nH]c(C)c(CC(=O)NC3CC4(CCC4)Oc4ccc(Cl)cc43)c2c1` (stereo not drawn) [Example 25, N-(6-Chloro-3,4-dihydrospiro[chromene-2,1′-cyclobutan]-4-yl)-2-(5-methoxy-2-methyl-1H-indol-3-yl)acetamide], the inhibition at 1 µM is reported as 19% and the inhibition at 10 µM is reported as 48%.
